Literature values, collected in patent US20260007782A1, “PREPARATION METHOD FOR LIQUID COMPOSITION COMPRISING COMPOUND I AND USE IN MYOCARDIAL PERFUSION PET IMAGING” (SINOTAU PHARMACEUTICAL GROUP, priority 2022, published 2026).

Settings: animals

- cardiac uptake (15 minutes post-injection): high
- liver uptake (15 minutes post-injection): low
- heart-to-liver ratio (maintained after 60 minutes): favorable
Structure (SMILES): CC(C)(C)n1ncc(OCc2cccc(Cn3cc(COCCOCC[18F])nn3)c2)c(Cl)c1=O [Compound I, 2-tert-butyl-4-chloro-5-((3-((4-((2-(2-fluoro[^18F]ethoxy)ethoxy)methyl)-1H-1,2,3-triazol-1-yl)methyl)benzyl)oxy)pyridazin-3(2H)-one]
